Test results as given in ChEMBL document CHEMBL1201862, “PubChem BioAssay data set” (2004).
Calls of active or inactive are those of the source.

What was measured:
[1] = viability of uninfected HEp-2 cells – cell-based, HTS, cytotoxicity control for RSV inhibitor project, dose response (AID 2410); format: functional; settings: human respiratory syncytial virus
[2] = blockers of CRF-binding protein–CRF-R2 complex – cell-based, uHTS hits, 384-well, dose response (AID 651639); format: functional, Homo sapiens; settings: read-out: IC50_Mean
[3] = molecular target: T1, Corticotropin-releasing factor receptor 2/Corticotropin-releasing factor-binding protein (Homo sapiens, UniProt P24387+Q13324); experiment: Dose Response confirmation of uHTS hits for small molecule antagonists of the CRF-binding protein and CRF-R2 receptor complex.; format: functional; settings: read-out: IC50_Mean
T1 sequence (Q13324 whole entry): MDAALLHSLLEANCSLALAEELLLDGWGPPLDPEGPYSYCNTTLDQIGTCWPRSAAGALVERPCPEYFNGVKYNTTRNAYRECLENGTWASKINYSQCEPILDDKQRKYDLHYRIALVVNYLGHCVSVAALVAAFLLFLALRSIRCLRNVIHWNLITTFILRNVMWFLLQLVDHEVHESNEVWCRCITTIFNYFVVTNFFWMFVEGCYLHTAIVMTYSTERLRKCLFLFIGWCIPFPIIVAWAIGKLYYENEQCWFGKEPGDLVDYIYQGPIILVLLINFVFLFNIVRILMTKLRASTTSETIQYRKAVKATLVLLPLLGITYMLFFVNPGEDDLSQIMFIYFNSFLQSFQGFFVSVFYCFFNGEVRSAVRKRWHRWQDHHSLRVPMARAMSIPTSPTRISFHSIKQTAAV
T1 sequence (P24387 whole entry): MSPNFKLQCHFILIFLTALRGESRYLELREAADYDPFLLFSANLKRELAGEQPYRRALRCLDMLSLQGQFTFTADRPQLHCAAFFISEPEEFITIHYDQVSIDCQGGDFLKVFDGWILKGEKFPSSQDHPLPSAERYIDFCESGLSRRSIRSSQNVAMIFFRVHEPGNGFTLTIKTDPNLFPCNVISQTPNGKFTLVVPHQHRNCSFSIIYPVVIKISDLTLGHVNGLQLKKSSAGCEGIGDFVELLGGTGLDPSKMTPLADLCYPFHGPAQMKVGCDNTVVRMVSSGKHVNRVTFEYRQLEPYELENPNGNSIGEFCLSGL

[4] = molecular target: T1, Corticotropin-releasing factor receptor 2/Corticotropin-releasing factor-binding protein; experiment: activators of CRF receptor 2 with binding protein – uHTS hits, confirmation (AID 602473); format: functional; settings: read-out: EC50_Mean
[5] = molecular target: Voltage-dependent T-type calcium channel subunit alpha-1H (Homo sapiens, UniProt O95180); format: functional;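 further: channel activity triggered by adding a high calcium stimulation buffer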
Voltage-dependent T-type calcium channel subunit alpha-1H, sequence (O95180 whole entry): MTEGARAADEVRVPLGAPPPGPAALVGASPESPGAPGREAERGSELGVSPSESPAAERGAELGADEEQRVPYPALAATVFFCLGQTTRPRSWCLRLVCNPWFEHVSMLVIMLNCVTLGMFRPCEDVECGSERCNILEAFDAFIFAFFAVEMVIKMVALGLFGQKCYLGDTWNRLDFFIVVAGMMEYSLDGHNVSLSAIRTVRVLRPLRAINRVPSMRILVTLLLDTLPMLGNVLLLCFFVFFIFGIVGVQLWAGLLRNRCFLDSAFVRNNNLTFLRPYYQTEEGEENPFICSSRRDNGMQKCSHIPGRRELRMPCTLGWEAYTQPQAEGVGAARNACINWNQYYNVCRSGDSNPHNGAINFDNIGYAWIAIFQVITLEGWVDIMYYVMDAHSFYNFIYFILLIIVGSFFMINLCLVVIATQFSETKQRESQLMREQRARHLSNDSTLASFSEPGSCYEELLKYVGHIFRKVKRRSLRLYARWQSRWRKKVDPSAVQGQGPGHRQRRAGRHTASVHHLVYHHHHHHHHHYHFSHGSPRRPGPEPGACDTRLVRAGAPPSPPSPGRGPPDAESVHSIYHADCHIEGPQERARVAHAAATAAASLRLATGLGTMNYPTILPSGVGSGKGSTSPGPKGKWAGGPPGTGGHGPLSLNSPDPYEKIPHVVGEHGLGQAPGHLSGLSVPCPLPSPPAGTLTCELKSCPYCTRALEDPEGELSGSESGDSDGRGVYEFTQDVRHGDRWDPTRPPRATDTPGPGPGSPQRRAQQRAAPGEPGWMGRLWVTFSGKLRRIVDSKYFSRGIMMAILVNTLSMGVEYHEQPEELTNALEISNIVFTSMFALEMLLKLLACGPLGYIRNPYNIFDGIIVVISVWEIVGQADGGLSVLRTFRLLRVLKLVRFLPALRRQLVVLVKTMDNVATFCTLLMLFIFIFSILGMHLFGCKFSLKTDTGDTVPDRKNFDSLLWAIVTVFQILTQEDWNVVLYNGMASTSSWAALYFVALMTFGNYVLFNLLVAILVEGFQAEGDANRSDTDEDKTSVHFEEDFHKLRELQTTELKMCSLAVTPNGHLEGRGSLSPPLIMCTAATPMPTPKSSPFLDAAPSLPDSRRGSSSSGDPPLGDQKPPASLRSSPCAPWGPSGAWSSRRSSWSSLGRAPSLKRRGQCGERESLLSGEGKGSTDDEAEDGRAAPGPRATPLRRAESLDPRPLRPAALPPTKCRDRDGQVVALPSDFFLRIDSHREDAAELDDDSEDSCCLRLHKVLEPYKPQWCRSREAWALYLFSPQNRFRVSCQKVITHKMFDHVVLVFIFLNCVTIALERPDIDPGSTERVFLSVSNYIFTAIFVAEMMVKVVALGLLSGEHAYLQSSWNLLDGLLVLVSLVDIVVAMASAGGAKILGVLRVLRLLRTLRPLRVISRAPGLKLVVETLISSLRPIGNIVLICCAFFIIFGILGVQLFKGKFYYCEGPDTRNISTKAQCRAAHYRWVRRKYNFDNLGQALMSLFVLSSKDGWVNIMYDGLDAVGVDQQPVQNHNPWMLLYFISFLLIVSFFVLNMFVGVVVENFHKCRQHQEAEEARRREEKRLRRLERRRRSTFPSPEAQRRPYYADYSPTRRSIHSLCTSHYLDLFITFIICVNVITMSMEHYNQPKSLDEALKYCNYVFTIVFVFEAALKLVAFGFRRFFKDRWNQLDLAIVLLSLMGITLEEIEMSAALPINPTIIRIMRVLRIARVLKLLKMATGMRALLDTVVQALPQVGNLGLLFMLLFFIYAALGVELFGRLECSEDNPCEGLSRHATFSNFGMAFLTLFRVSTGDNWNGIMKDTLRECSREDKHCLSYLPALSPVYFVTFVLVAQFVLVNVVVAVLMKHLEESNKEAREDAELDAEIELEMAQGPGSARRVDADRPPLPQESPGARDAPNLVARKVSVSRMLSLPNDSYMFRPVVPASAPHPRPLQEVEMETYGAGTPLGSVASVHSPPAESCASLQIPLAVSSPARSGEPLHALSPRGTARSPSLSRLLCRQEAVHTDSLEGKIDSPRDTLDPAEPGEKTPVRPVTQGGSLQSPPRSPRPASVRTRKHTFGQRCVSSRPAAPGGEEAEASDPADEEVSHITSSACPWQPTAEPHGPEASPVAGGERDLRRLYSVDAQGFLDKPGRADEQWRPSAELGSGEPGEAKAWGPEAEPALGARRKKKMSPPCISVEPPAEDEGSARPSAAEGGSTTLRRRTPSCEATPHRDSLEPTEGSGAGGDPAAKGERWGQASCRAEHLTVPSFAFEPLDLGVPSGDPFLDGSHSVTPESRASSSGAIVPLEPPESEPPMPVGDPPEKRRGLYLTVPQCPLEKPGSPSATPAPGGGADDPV

H9c2 = experiment: cells; format: functional, cell-based; settings: Rattus norvegicus, H9c2, Myocardium;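 further: confirmatory concentration-response retest of ultra-high-throughput screening hits for modulation of myocardial damage; cell death induced by hydrogen peroxide oxidative stress; compound pretreatment for 60 min then peroxide exposure for 2 h; potency is for protecting the cells against peroxide damage rather than for killing them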
[6] = A Cell Based Secondary Assay To Explore Cytotoxicity of Compounds that Sensitize Mycobacterium Tuberculosis to Beta-Lactam Antibiotics.; format: functional
Aminopeptidase N = molecular target: T2, Aminopeptidase N (Plasmodium falciparum FcB1/Columbia, UniProt O96935); experiment: malaria alanyl aminopeptidase activity blockers – biochemical, fluorogenic H-Leu-NHMec substrate, 1536-well (AID 1445); parameters: species or system Plasmodium falciparum 3D7, 3D7
T2 sequence (O96935 whole entry): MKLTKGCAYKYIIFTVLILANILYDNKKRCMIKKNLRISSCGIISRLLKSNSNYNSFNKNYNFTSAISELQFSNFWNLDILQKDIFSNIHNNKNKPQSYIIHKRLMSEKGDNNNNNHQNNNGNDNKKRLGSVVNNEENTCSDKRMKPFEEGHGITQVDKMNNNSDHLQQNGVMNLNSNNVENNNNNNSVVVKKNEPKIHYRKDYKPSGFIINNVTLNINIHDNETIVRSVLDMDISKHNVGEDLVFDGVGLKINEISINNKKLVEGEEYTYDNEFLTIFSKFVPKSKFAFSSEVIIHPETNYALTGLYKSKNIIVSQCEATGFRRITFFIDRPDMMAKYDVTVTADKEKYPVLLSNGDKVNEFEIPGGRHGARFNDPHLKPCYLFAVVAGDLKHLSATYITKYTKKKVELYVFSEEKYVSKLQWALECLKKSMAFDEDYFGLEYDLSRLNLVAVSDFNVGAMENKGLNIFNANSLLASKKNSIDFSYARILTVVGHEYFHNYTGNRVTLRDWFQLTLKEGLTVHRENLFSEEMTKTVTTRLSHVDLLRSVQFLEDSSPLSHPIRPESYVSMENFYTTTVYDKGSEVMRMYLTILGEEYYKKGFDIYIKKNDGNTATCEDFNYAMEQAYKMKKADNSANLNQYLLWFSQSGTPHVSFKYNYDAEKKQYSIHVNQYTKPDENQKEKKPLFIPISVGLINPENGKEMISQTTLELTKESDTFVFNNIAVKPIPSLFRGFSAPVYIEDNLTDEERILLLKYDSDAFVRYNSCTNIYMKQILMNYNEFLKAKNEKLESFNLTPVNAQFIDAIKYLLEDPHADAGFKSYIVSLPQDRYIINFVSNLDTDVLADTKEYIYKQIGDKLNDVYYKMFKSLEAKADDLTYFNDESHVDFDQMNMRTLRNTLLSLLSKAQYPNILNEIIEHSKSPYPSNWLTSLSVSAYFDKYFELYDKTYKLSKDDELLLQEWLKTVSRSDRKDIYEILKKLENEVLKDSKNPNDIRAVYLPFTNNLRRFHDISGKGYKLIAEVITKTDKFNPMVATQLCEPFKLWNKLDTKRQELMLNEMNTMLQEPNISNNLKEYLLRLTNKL

[7] = molecular target: T3, Short transient receptor potential channel 4 (Mus musculus, UniProt Q9QUQ5); experiment: calcium entry via TRPC4 opening agents – cell-based, HEK293 TRPC4/mu-opioid, Fluo-4 calcium, dose response (AID 434937); format: functional
T3 sequence (Q9QUQ5 whole entry): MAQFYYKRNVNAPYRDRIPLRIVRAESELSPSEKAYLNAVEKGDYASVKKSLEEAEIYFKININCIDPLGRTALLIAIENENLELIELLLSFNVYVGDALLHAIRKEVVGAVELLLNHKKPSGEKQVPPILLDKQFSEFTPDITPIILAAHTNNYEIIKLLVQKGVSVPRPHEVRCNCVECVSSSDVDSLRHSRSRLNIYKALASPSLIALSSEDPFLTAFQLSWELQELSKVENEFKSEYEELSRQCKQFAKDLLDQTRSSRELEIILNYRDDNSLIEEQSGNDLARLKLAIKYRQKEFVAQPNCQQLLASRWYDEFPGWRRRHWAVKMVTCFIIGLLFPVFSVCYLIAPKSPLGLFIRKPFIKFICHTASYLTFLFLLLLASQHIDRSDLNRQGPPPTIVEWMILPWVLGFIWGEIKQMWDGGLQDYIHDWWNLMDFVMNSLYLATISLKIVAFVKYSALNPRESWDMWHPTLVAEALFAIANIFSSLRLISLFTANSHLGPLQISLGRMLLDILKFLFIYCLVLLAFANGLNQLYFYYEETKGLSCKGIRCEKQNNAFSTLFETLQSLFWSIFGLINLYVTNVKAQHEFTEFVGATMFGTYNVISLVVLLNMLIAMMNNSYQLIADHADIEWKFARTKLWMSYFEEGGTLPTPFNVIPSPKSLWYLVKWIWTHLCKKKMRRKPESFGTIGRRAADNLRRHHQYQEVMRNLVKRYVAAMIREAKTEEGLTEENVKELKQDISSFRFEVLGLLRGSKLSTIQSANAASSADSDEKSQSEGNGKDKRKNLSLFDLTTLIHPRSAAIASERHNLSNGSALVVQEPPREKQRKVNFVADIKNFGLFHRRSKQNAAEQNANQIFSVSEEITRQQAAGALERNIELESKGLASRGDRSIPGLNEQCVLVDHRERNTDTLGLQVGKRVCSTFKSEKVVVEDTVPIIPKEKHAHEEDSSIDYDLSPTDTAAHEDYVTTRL

Cytochrome P450 2C9 [8] = molecular target: T4, Cytochrome P450 2C9 (Homo sapiens, UniProt P11712)
T4 sequence (P11712 whole entry): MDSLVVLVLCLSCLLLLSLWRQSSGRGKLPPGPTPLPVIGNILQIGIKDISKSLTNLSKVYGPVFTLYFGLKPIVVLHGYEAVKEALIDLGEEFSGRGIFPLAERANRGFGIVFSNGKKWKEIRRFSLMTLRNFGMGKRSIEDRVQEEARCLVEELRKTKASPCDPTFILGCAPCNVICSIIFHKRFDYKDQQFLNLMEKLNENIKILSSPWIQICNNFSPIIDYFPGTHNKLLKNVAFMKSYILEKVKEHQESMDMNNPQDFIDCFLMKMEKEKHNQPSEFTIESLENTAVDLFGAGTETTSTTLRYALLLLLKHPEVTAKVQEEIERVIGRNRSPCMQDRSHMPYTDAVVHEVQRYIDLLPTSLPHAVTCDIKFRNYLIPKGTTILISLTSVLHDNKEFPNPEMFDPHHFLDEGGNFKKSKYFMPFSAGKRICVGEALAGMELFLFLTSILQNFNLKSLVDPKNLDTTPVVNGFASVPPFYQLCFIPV

Cytochrome P450 1A2 = molecular target: T5, Cytochrome P450 1A2 (Homo sapiens, UniProt P05177);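 further: PubChem cytochrome P450 panel assay, CYP1A2 panel member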
T5 sequence (P05177 whole entry): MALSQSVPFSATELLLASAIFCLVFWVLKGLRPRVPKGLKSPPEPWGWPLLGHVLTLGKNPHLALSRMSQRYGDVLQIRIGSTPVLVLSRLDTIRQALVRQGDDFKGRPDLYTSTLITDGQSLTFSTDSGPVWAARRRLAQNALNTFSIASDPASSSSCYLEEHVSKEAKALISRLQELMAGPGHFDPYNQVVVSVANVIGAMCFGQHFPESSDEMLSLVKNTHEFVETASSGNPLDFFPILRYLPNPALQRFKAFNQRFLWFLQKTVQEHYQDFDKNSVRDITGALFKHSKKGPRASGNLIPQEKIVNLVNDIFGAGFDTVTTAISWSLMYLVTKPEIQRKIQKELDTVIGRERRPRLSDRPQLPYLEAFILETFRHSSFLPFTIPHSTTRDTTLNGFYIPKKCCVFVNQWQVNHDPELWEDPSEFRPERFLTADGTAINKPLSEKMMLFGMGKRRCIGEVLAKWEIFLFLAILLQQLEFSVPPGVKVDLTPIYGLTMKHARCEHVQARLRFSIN

Cytochrome P450 2C19 = Cytochrome P450 2C19 (Homo sapiens, UniProt P33261); experiment: Cytochrome panel assay with activity outcomes. Panel member name: p450-cyp2c19 Compounds with AC50 equal or less than 10 uM are considered active; format: functional; settings: read-out: AC50
Cytochrome P450 2C19, sequence (P33261 whole entry): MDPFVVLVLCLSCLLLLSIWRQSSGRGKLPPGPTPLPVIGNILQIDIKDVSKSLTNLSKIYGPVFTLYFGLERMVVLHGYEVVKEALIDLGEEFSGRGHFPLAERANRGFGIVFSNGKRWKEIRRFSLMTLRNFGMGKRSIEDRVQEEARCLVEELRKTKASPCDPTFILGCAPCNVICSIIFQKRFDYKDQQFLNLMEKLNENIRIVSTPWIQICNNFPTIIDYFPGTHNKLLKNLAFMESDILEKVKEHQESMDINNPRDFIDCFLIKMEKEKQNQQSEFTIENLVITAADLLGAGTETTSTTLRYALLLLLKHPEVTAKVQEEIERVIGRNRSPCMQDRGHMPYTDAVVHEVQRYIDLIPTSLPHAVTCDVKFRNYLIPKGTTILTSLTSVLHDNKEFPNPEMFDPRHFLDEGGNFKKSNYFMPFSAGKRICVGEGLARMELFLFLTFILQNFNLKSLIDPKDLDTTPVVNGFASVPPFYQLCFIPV

Cytochrome P450 2C9 [9] = molecular target: T4, Cytochrome P450 2C9; remark: listed apart in the source
[10] = molecular target: T6, Heat shock factor protein 1 (Mus musculus, UniProt P38532); experiment: decrease of HSF1-responsive luciferase luminescence – cell-based, NIH3T3, dose retest, confirmation (AID 2382); format: functional;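 further: NIH3T3 fibroblasts with HSF1-driven luciferase reporter stressed by proteasome inhibitor MG132; luminescence from HSF1-driven luciferase expression after 8 hours of MG132 stress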
T6 sequence (P38532 whole entry): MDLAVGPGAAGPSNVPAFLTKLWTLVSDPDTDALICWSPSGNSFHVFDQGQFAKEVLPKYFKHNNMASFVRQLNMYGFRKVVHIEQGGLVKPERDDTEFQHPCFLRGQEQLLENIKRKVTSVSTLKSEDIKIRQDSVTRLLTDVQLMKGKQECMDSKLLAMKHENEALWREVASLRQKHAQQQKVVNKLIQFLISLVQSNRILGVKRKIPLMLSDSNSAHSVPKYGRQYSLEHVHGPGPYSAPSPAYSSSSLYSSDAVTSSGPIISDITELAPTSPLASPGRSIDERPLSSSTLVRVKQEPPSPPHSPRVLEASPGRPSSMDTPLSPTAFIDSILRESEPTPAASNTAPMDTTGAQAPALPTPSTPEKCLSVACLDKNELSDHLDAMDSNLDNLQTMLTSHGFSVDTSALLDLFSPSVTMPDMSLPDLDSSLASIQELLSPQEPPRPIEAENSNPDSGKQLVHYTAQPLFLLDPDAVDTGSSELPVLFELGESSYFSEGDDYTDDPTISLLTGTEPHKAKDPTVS

O=C(c1ccc(-c2ccccc2Cl)s1)N1CCOCC1
CC50 [1]: > 50 µM (active)

CCCCOC1CC(c2ccc(OCc3ccc(OC)cc3)c(OC)c2)N(C)O1 (stereo unspecified)
IC50 [2]: > 20 µM (inactive)
IC50 [3]: 15.4 µM (active)
EC50 [4]: > 53 µM (inactive)

O=C(CCn1nc(-c2ccccc2)c2ccccc2c1=O)N1CCN(c2ccccc2)CC1
EC50 [5]: 7.63 µM (active)
IC50 (H9c2): > 79 µM (inactive)

N#Cc1c(NC(=O)CSc2nc(-c3ccco3)cc(C(F)(F)F)n2)sc2c1CCCC2
CC50 [6]: > 40 µM (active)

CSc1cccc(NC(=O)CN(c2ccc(C)cc2C)S(C)(=O)=O)c1
EC50 [5]: 4.13 µM (active)

O=C(Nc1cccc2ccccc12)N1CCCN(c2c(Cl)cncc2Cl)CC1
CC50 [6]: > 40 µM (active)

O=C(CS(=O)(=O)Cc1ccccc1)N1CCN(c2cccc(C(F)(F)F)c2)CC1
IC50 (Aminopeptidase N): 105 µM (active)

CC(C)Cc1csc(NC(=O)c2ccc(Cl)cc2)c1C(=O)O
IC50 [2]: 17.8 µM (active)
IC50 [3]: 5.06 µM (active)
EC50 [4]: 25.8 µM (active)

Cc1ccc(NC(S)=NCCc2c[nH]cn2)cc1C
EC50 [7]: 0.267 µM (active)

NS(=O)(=O)c1ccc(N2N=C(c3ccccc3)CC2c2cccc(F)c2)cc1 (stereo unspecified)
IC50 (Aminopeptidase N): 47.6 µM (active)

Cc1ccc(S(=O)(=O)c2nc(NCCN(C)C)sc2Cl)cc1
IC50 (Aminopeptidase N): 12.7 µM (active)

O=C(c1cccs1)N1CCN(c2ncc(Br)cn2)CC1
EC50 [7]: 0.668 µM (active)

Cc1nn(-c2cc(C(F)(F)F)ccc2Cl)c2nc(C(Cl)(Cl)Cl)nc(O)c12
IC50 [2]: 11.1 µM (active)
IC50 [3]: 5.2 µM (active)
EC50 [4]: > 53 µM (inactive)

Cc1cccc(-c2nc(CN3CCCC(C(=O)NC4CCCCC4)C3)c(C)o2)c1 (stereo unspecified)
EC50 [5]: 2.14 µM (active)
AC50 (Cytochrome P450 2C9 [8]): 28.2 µM (inconclusive)
AC50 (Cytochrome P450 1A2): 20 µM (inconclusive)

Cn1c(=S)[nH]c2sc3c(c2c1=O)CCC(C(C)(C)C)C3 (stereo unspecified)
CC50 [6]: 10.7 µM (active)

CC1CCCCC1NC(=O)CCCCCn1c(=S)[nH]c2ccsc2c1=O (stereo unspecified)
IC50 [2]: > 20 µM (inactive)
IC50 [3]: < 0.368 µM (active)
EC50 [4]: > 53 µM (inactive)

O=C1CC(c2ccc(Cl)cc2)SC(N(c2ccccc2)c2ccccc2)=N1 (stereo unspecified)
IC50 [2]: 14.9 µM (active)
IC50 [3]: 13.8 µM (active)
EC50 [4]: > 53 µM (inactive)

Fc1ccc(N2CCN(c3ccc4c(C(F)(F)F)cc(C(F)(F)F)nc4n3)CC2)cc1
EC50 [5]: 4.13 µM (active)
AC50 (Cytochrome P450 2C19): 22.4 µM (inconclusive)
AC50 (Cytochrome P450 2C9 [9]): inconclusive
AC50 (Cytochrome P450 1A2): 5.01 µM (inconclusive)

CC(/C=C(\NC(=O)c1ccccc1)C(=O)N=Nc1c(O)[nH]c2ccc(C)cc12)=C\c1ccccc1
CC50 [6]: 33.7 µM (active)
EC50 [10]: 16.1 µM (active)

CCCCN(CCCC)CP(=O)(c1ccccc1)c1ccccc1
EC50 [5]: 11.4 µM (active)

C/C(N)=C(/C#N)C(=O)COC(=O)c1cc(-c2cccc(Br)c2)nc2ccccc12
CC50 [1]: 12.2 µM (active)

O=C(CSc1nc2ccsc2c(=O)n1NC(=O)c1ccccc1)NCc1ccco1
IC50 (Aminopeptidase N): 72.1 µM (active)

Cc1ccc(-n2nc(C)c3c2NC(=O)CSC3c2ccc3c(c2)OCO3)cc1 (stereo unspecified)
EC50 [5]: 6.71 µM (active)
EC50 [10]: > 195 µM (not active)
